Consider eight molecules from patent publication US20050222041A1, “Ncam binding compounds” (ENKAM Pharmaceuticals A/S, priority 2001, published 2005).

Where “and” joins values, the source holds several entries; their conditions need not be identical. Equal entries are not always repeated. Where two headings read alike, the source gives them in different places. Ends that are not written are not given here.

Experiment [1] has as its system NBP10-induced neurite outgrowth. The experiment is described as follows: Inhibition of NBP10d-induced neurite outgrowth by inhibitors of NCAM-dependent signal transduction. The experiment is classed as cell-based, rat.
The next experiment relates to PC12E2 cells. The experiment is described as follows: Fura-2 calcium imaging in PC12E2 cells. The experiment is classed as cell-based. To be noted: lower concentrations than 50 μM. The procedure: The PC12-E2 cell line was a generous gift from Dr. Klaus Seedorf, Hagedorn Research Institute, Denmark. Cells were grown in DMEM supplemented with 5% v/v FBS and 10% v/v horse serum (HS). For calcium imaging, PC12E2 cells were dislodged mechanically by tapping and seeded at a density of 5-30,000 cells/cm^2 in 4 or 8 well LabTek chambered cover-slides (NUNC) with a growth surface of plastic coated with fibronectin (10 μg/ml) and grown for 1 to 5 days. In some cases, neuronal differentiation was induced by changing the medium to DMEM supplemented with 1% v/v FBS, 1% v/v HS and NGF (50 ng/ml) or FGF-2 (10 ng/ml).
Cells were washed in HANK's solution comprising KCl (5.4 mM), NaCl (137 mM), NaHCO3 (2 mM), MgSO4 (0.8 mM), Na2HPO4 (0.27 mM), Glucose (5.6 mM), CaCl2 (1.25 mM), KH2PO4 (0.44 mM) and loaded with fura-2 acetomethyl ester (Fura-2 AM, 2 μM, Molecular Probes, Eugene, Oreg., USA) dissolved in Dimethyl Sulfoxide (DMSO) for 35 min at 20° C. in the dark. Hereafter, cells were washed four times and placed on the stage of an inverted Axiovert 100 TV microscope (Zeiss, Göttingen, Germany) equipped with an oil immersion UV objective (Zeiss Fluar 40×, 1.3 numerical aperture). […] Rmax was determined in situ using Fura-2 AM loaded cells in the presence of ionomycin (5 μM) and high extracellular calcium (10 mM). Values determined were: Rmax 9.0; Rmin 0.68; F380max/F380min 7.0. […]

Another experiment has as its system hippocampal cells. Put plainly: Cell aggregation in primary hippocampal aggregate cultures. Particulars: 24 h. The format is cell-based, rat. The procedure: A variety of suitable compounds have been discussed above. To test the function of the NCAM binding molecule, the inventors have established a simple cell culture system (aggregate cell cultures) that permits a quantitative evaluation of the effect of various ligands. Hippocampal cells are provided from rat embryos. The cells are grown in a defined medium and dissociated cells are seeded in microtiter plates. After 24 h, the amount of aggregates are counted. Compounds to be tested are added to the cell suspension immediately before seeding of the cells in micro-wells. When NCAM binding compounds are present during the aggregation of cells, smaller, but more numerous cell aggregates are seen when quantified 24 h after seeding of the cells. The inhibiting effect of the ligands results in a blockage of the formation of large aggregates from many small aggregates as the adhesion properties of NCAM are blocked. Thus, small but more numerous cell aggregates are seen in the presence of active ligands. Such an effect is due to the presence of different compounds of the invention during the aggregation of cells. The system allows for the examination of disaggregation of the treated cells.
Dissociated hippocampal cells prepared from rat embryos gestational day 18 were seeded in microwell plates 50,000 cells in 15 μl of medium per well as previously described (Maar et al., 1997)(Rønn et al., 1999). All animals were handled in accordance with the national guidelines for animal welfare. Cells were grown in Neurobasal medium supplemented with B27, 20 mM HEPES, penicillin (100 U/ml), streptomycin (100 μg/ml) and 0.4% w/v bovine serum albumin. After 24 h in culture, the number of aggregates per well was determined. […] After 24 h, images of neurons were captured and analysed by means of computer-assisted microscopy as described (Rønn et al., 2000).
An important function of NCAM is mediation of cell adhesion. […] The effect of NBP10 on cell aggregation was only quantified at low concentrations of the peptide (FIG. 1CD). […] Under these conditions, the number of aggregates could not be quantified. […]

Experiment [2] concerns primary hippocampal neurons. The experiment is described as follows: Neurite outgrowth in dissociated cultures of primary hippocampal neurons on plastic. The format is cell-based, rat. Particulars: for concentration of maximal effect on neurite outgrowth: bell shaped dose-response. The procedure:
Dissociated hippocampal cells prepared from rat embryos gestational day 18 were seeded in microwell plates 50,000 cells in 15 μl of medium per well as previously described (Maar et al., 1997)(Rønn et al., 1999). All animals were handled in accordance with the national guidelines for animal welfare. Cells were grown in Neurobasal medium supplemented with B27, 20 mM HEPES, penicillin (100 U/ml), streptomycin (100 μg/ml) and 0.4% w/v bovine serum albumin. After 24 h in culture, the number of aggregates per well was determined. For analysis of neurite outgrowth, 5,000 cells/well were seeded in 8 well LabTek Tissue Culture Chamber Slides with a growth surface of Permanox plastic. After 24 h, images of neurons were captured and analysed by means of computer-assisted microscopy as described (Rønn et al., 2000).
The effect of NBP10 in dissociated cultures of primary hippocampal neurons grown on a plastic substratum were examined.

The target of experiment [3] is NCAM on primary hippocampal neurons from rat embryos (rat) (UniProt P13596). The experiment is described as follows: cell-based or functional assay.
[4] abbreviates: NBP10d 1 μM, inhibitor concentration not given.

On to `COc1cccc(-c2cc(=O)c3ccccc3o2)c1N` [PD98059], for which, in experiment [1] (NBP10d 1 μM, inhibitor 10 μM), the “effect on NBP10-induced neurite outgrowth” value is reported as “partially inhibited”.

As for `Cc1ccc(-c2nn(C(C)(C)C)c3ncnc(N)c23)cc1` [PP1], the “effect on NBP10-induced neurite outgrowth” value in experiment [1] (setting [4]) is given as “partially inhibited”.

In the case of `C[S+]([O-])c1ccc(-c2nc(-c3ccncc3)c(-c3ccc(F)cc3)[nH]2)cc1` (stereo not shown) [SB203580], the “effect on NBP10-induced neurite outgrowth” value in experiment [1] (NBP10d 1 μM, inhibitor 1 μM) is reported as “partially inhibited”.

On to `CCN(CC)CCCCCCCCOC(=O)c1cc(OC)c(OC)c(OC)c1.Cl` [TMB-8, 8-(N,N-diethylamino)octyl-3,4,5-trimethoxybenzoate hydrochloride], for which, in experiment [1] (setting [4]), the “effect on NBP10-induced neurite outgrowth” value is on record as “complete inhibition”.

Regarding “AKKMWKKTW (listed as Rattus rattus) [NBP10]”, in the experiment on PC12E2 cells, the “effect on intracellular calcium” value is given as “only a fraction of the cells showed detectable increases in intracellular calcium”.

As to “AKKMWKKTW [NBP10m, monomeric NBP10 peptide]”, in the experiment on hippocampal cells, the “concentration at which cultures had no distinct cell aggregates” value was found to be 200 µM, the “concentration inducing formation of small but distinct aggregates” value came out at 60 µM and the “effect on cell aggregation” value is “inhibited cell aggregation”. In experiment [2], the “shape of dose-response relationship for neurite outgrowth” value is “bell shaped” and the “concentration of maximal effect on neurite outgrowth” value is about 100 µM. For the same molecule, the “concentration of maximal effect on neurite outgrowth” value in experiment [2] (listed as monomer) was determined as 1.00 µM. Moreover, in experiment [2] (dose-response, 24 h, plastic substratum), the “effect on neurite outgrowth” value is reported as “stimulated neurite outgrowth”.

Consider ω-conotoxin MVIIA, for which, in experiment [1], the “effect on NBP10-induced neurite outgrowth” value is “partial inhibition”.

With AKKMWKKTW (peptide, part only, also: four monomers on lysine dendrimer backbone) [NBP10 peptide dendrimer (four NBP10 monomers coupled to a lysine backbone)], in experiment [3], the cell aggregation of hippocampal cells, concentration with effect was 1 µM and 2 µM; the neurite outgrowth of dissociated hippocampal neurons, concentration of maximal effect was found to be 1 µM. This molecule displayed a cell aggregation, potency against the peptide monomer in experiment [3] (scale: times lower concentration than the monomer) of 50.
